Results reported in article PMC12717519, “Chemical clues to infection: A pilot study on the differential secondary metabolite production during the life cycle of selected Cordyceps species” (IMA Fungus, 2025).
Converted amounts (≈) assume the structure as drawn. Read-outs that look alike come from different tables or passages of the source.

Assays:
[1] = ref Namatame et al. 2004; cited from earlier work
Description: (§1) Our study highlights how amino acid substitutions modulate beauveriolides’ bioactivities. […] Thus, the amino acid at this position is crucial for bioactivity. The lack of antimicrobial activity in some beauveriolides, such as those containing HDA, further supports the hypothesis that these molecules may have different functions, such as facilitating insect pathogenicity rather than broad antimicrobial antagonism.

macrophages = conditions: ref Namatame et al. 2004; cited from earlier work
Description: as §1

[2] = tested on: Bacillus subtilis (DSM 10); test: microbe, parasite or virus in culture; type: cell-based
Experimental: (§2) Serial dilution assays were performed in 96-well microtiter plates to determine the minimum inhibitory concentrations (MICs) against a panel of yeasts, filamentous fungi, and bacteria, as well as the half-maximal inhibitory concentrations (IC50) against human cell lines, following our previously described protocol ([Charria-Girón et al. 2023]).

[3] = tested on: Staphylococcus aureus (DSM 346); test: microbe, parasite or virus in culture; type: cell-based
Experimental: as §2

[4] = tested on: Acinetobacter baumannii (DSM 30008); test: MIC serial dilution assay; type: cell-based; conditions: serial dilution in 96-well microtiter plates; tested up to 67 µg/mL
Experimental: as §2

[5] = tested on: Candida albicans (DSM 1665); test: MIC serial dilution assay; type: cell-based; conditions: serial dilution in 96-well microtiter plates; tested up to 67 µg/mL
Experimental: as §2

[6] = tested on: Chromobacterium violaceum (DSM 30191); test: MIC serial dilution assay; type: cell-based; conditions: serial dilution in 96-well microtiter plates; tested up to 67 µg/mL
Experimental: as §2

[7] = tested on: Escherichia coli (DSM 1116); test: MIC serial dilution assay; type: cell-based; conditions: serial dilution in 96-well microtiter plates; tested up to 67 µg/mL
Experimental: as §2

[8] = tested on: Mucor hiemalis (DSM 2656); test: MIC serial dilution assay; type: cell-based; conditions: serial dilution in 96-well microtiter plates; tested up to 67 µg/mL
Experimental: as §2

[9] = tested on: Mycobacterium smegmatis (ATCC 700084); test: MIC serial dilution assay; type: cell-based; conditions: serial dilution in 96-well microtiter plates; tested up to 67 µg/mL
Experimental: as §2

[10] = tested on: Pseudomonas aeruginosa (PA14); test: MIC serial dilution assay; type: cell-based; conditions: serial dilution in 96-well microtiter plates; tested up to 67 µg/mL
Experimental: as §2

[11] = tested on: Rhodotorula glutinis (DSM 10134); test: MIC serial dilution assay; type: cell-based; conditions: serial dilution in 96-well microtiter plates; tested up to 67 µg/mL
Experimental: as §2

[12] = tested on: Schizosaccharomyces pombe (DSM 70572); test: MIC serial dilution assay; type: cell-based; conditions: serial dilution in 96-well microtiter plates; tested up to 67 µg/mL
Experimental: as §2

[13] = tested on: Wickerhamomyces anomalus (DSM 6766); test: MIC serial dilution assay; type: cell-based; conditions: serial dilution in 96-well microtiter plates; tested up to 67 µg/mL
Experimental: as §2

Mouse fibroblast (L929) = test: Cytotoxicity assay; type: cell-based; conditions: serial dilution in 96-well plates
[14] = tested on: Human endocervival adenocarcinoma (KB3.1); test: cells; type: cell-based
Experimental: as §2

[15] = Solubility in deuterated solvents (for NMR); type: physicochemical; conditions: observation during NMR sample preparation; deuterated solvents / deuterated DMSO
[16] = tested on: Human breast adenocarcinoma (MCF-7); test: Cytotoxicity assay; type: cell-based; conditions: serial dilution in 96-well plates
Experimental: as §2

[17] = tested on: Human ovarian cancer (SKOV-3); test: Cytotoxicity assay; type: cell-based; conditions: serial dilution in 96-well plates
Experimental: as §2

[18] = tested on: Human epidermoid carcinoma (A431); type: cell-based
Experimental: as §2

[19] = tested on: Human lung carcinoma (A549); type: cell-based
Experimental: as §2

[20] = tested on: Human prostate carcinoma (PC-3); type: cell-based
Experimental: as §2

[21] = tested on: beet armyworm (Spodoptera exigua, Lepidoptera); test: Virulence of purified compounds against beet armyworm larvae (injection); type: in vivo; conditions: larvae injected with 0.5 µL of DMSO dilutions (40 to 0.625 µg/mL), n = 6 per concentration, 25 °C, concentration of the value not stated
Experimental: To evaluate the virulence of purified compounds against beet armyworm larvae, beauveriolides I (4) and M (5) were selected based on availability, and cytochalasin D served as a positive control. […] Larvae were injected with 0.5 µL of each dilution (n = 6 per concentration), maintained at 25 °C for one week, and monitored daily to assess mortality. Saline ([…]) and DMSO served as negative controls.
For proof of concept, beauveriolides I (4) and M (5) were selected based on availability and tested following the spore-suspension protocol but considering only total mortality, with cytochalasin D, a mycotoxin commonly produced by Metarhizium spp., used as a positive control ([Kobmoo et al. 2024]).

[22] = serial dilution in 96-well microtiter plates, tested up to 67 µg/mL
[23] = KB3.1, serial dilution in 96-well plates, read-out: IC50

In the case of Beauveriolide III [reference compound], the “adverse outcomes in animal studies” value [1] is listed as “without adverse outcomes” and the “antiatherogenic effects in macrophages” value (macrophages) is listed as “potent antiatherogenic effects”.

In the case of Beauveriolide R [Compound 2], the MIC [2, 22] is reported as “n.i. (No inhibition up to 67 µg/mL)”, the MIC [3, 22] is reported as “n.i. (No inhibition up to 67 µg/mL)” and the MIC [4] is reported as “n.i. (No inhibition up to 67 µg/mL)”. The MIC [5] was “n.i. (No inhibition up to 67 µg/mL)”, the MIC [6] was “n.i. (No inhibition up to 67 µg/mL)” and the MIC [7] was “n.i. (No inhibition up to 67 µg/mL)”. The MIC [8] was “n.i. (No inhibition up to 67 µg/mL)”, the MIC [9] was “n.i. (No inhibition up to 67 µg/mL)” and the MIC [10] was “n.i. (No inhibition up to 67 µg/mL)”. For the same compound, the MIC [11] was “n.i. (No inhibition up to 67 µg/mL)”, the MIC [12] was “n.i. (No inhibition up to 67 µg/mL)” and the MIC [13] was “n.i. (No inhibition up to 67 µg/mL)”. The IC50 (Mouse fibroblast (L929)) was > 36.5 µM, the IC50 [14, 23] was > 36.5 µM and the “solubility in deuterated solvents” value [15] was “soluble”.

For `CCCC[C@H](C)[C@@H]1CC(=O)N[C@@H](Cc2ccccc2)C(=O)N[C@@H](C)C(=O)N[C@H](CC(C)C)C(=O)O1` [Compound 4, beauveriolide I], the MIC ([2]; DSM 10) was 66.6 µg/mL (≈ 137 µM), the MIC ([3]; DSM 346) was 66.6 µg/mL (≈ 137 µM) and the MIC [5] was “n.i. (No inhibition up to 67 µg/mL)”. For the same compound, the MIC [7] was “n.i. (No inhibition up to 67 µg/mL)”, the MIC [8] was “n.i. (No inhibition up to 67 µg/mL)” and the MIC [9] was “n.i. (No inhibition up to 67 µg/mL)”. The MIC [10] was “n.i. (No inhibition up to 67 µg/mL)”, the IC50 [14] was 13.3 µM and the IC50 [16] was > 36.5 µM. The IC50 [17] was > 36.5 µM, the IC50 [18] was 1200 nM and the IC50 [19] was 900 nM. For the same compound, the IC50 [20] was 3.5 µM, the “total mortality (TM) in the last two days” value ([21]; 7-day period) was 67% and the “average total mortality (TM) over the first five days” value [21] was 33%. The “adverse outcomes in animal studies” value [1] was “without adverse outcomes” and the “antiatherogenic effects in macrophages” value (macrophages) was “potent antiatherogenic effects”.

With Beauveriolide Q [Compound 1] the MIC [2, 22] was “n.i. (No inhibition up to 67 µg/mL)”, the MIC [3, 22] was “n.i. (No inhibition up to 67 µg/mL)” and the MIC [4] was “n.i. (No inhibition up to 67 µg/mL)”. The MIC [5] was “n.i. (No inhibition up to 67 µg/mL)”, the MIC [6] was “n.i. (No inhibition up to 67 µg/mL)” and the MIC [7] was “n.i. (No inhibition up to 67 µg/mL)”. The MIC [8] was “n.i. (No inhibition up to 67 µg/mL)”, the MIC [9] was “n.i. (No inhibition up to 67 µg/mL)” and the MIC [10] was “n.i. (No inhibition up to 67 µg/mL)”. For the same compound, the MIC [11] was “n.i. (No inhibition up to 67 µg/mL)”, the MIC [12] was “n.i. (No inhibition up to 67 µg/mL)” and the MIC [13] was “n.i. (No inhibition up to 67 µg/mL)”. For the same compound, the IC50 (Mouse fibroblast (L929)) was > 36.5 µM, the IC50 [14, 23] was > 36.5 µM and the “solubility in deuterated solvents” value [15] was “poor solubility”.
